This note sets out measurements from patent US20260232666A1, “COMPOSITIONS AND METHODS FOR INHIBITION OF RAS” (TheRas, Inc., priority 2023, published 2026).

Test [1] has as its target T1, GppNHp-loaded KRAS4b (amino acids 1-169) G12C/C118S protein (Homo sapiens, UniProt P01116, C118S/G12C).
T1 construct: KRAS4b (amino acids 1-169) G12C/C118S protein; made in house
Nature of the test: Covalent cysteine 12 modification by MALDI-TOF MS, GppNHp-loaded KRAS G12C. The test is classed as binding. Conditions: 15 minutes reaction time point. Summed up: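 1 μM protein + cpd (1:2.5), HEPES 20 mM/NaCl 150 mM/MgCl2 1 mM pH 7.3, RT, dark, 15 min. Linear MALDI-TOF, sinapinic acid matrix. % mod = modified/(modified + unmodified) peak height.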

The test system of the next test is pERK in NCI-H358 cells. The experiment in a line: Cell-based pERK HTRF assay (pERK inhibition in H358 cells). Conditions: 30 min incubation. A digest of the protocol: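 NCI-H358 cells were seeded at 4×10^4 cells/well in RPMI/10% FBS, then treated next day for 30 min at 0.25% DMSO (9-point, 3-fold series from 75 μM). Lysates were read by HTRF (d2/Eu cryptate antibody pair, 615 nm emission) after 4–24 h at room temperature to give pERK IC50.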
(In general: TR-FRET usually uses a lanthanide donor and a delayed reading to cut background.)

`C=CC(=O)N1CC[C@@H](N(CC)c2nc(OC[C@@H]3CC4(CC4)CN3C)nc3c(F)c(-c4ccc(F)c5sc(N)c(C#N)c45)c(Cl)cc23)[C@H]1C` [Compound 75]: the “GppNHp-KRAS G12C percent of modification” value in test [1] is “A (percent of modification ≥70%)”. For the same compound, the 50% inhibitory concentration (IC50) (as a rule, the concentration at which inhibition is half-maximal) in the test with pERK in NCI-H358 cells is less than 100 nM.

For the compound `C=CC(=O)N1CC[C@@H](N(CC)c2nc(OC[C@@]34CCCN3C[C@H](F)C4)nc3cc(-c4ccc(F)c5sc(N)c(C#N)c45)c(F)cc23)[C@H]1CC` [Compound 76], the “GppNHp-KRAS G12C percent of modification” value in test [1] is on record as “A (percent of modification ≥70%)”. For the same compound, the half-inhibitory concentration (IC50) in the test with pERK in NCI-H358 cells (Homo sapiens, NCI-H358, 0.5 h) fell in the range of 100 to 1000 nM.

For `C=CC(=O)N1CC[C@@H](N(CC)c2nc(OC[C@@]34CCCN3C[C@H](F)C4)nc3c(F)c(-c4ccc(F)c5sc(N)c(C#N)c45)c(Cl)cc23)[C@@H]1C` [Compound 77], the “GppNHp-KRAS G12C percent of modification” value in test [1] is “A (percent of modification ≥70%)”. The compound further had an IC50 in the test on pERK in NCI-H358 cells (Homo sapiens, NCI-H358, 0.5 h) of less than 100 nM.

Consider `C=CC(=O)N1CC[C@@H](N(C)c2nc(OC[C@@]34CCCN3C[C@H](F)C4)nc3c(F)c(-c4nc(N)cc(C)c4C(F)(F)F)c(Cl)cc23)[C@H]1C` [Compound 78, 1-[(2R,3R)-3-[[7-[6-amino-4-methyl-3-(trifluoromethyl)-2-pyridyl]-6-chloro-8-fluoro-2-[[(2R,8S)-2-fluoro-1,2,3,5,6,7-hexahydropyrrolizin-8-yl]methoxy]quinazolin-4-yl]-methyl-amino]-2-methyl-pyrrolidin-1-yl]prop-2-en-1-one], for which, in test [1], the “GppNHp-KRAS G12C percent of modification” value was “A (percent of modification ≥70%)”. This compound registered an IC50 with pERK in NCI-H358 cells (Homo sapiens, NCI-H358, 0.5 h) of less than 100 nM.

Turning to `C=CC(=O)N1CC[C@@H](N(C)c2nc(OC[C@@H]3C[C@@H](OC)CN3C)nc3c(F)c(-c4ccc(F)c5sc(N)c(C#N)c45)c(Cl)cc23)[C@@H]1C` [Compound 79], the “GppNHp-KRAS G12C percent of modification” value in test [1] is recorded as “A (percent of modification ≥70%)”. The IC50 with pERK in NCI-H358 cells (Homo sapiens, NCI-H358, 0.5 h) is less than 100 nM.

Turning to `C=CC(=O)N1CC[C@@H](N(C)c2nc(N3CC(N(C)C)C3)nc3c(F)c(-c4ccc(F)c5sc(N)c(C#N)c45)c(C(F)(F)F)cc23)[C@H]1C` [Compound 80], the “GppNHp-KRAS G12C percent of modification” value in test [1] is “B (50≤percent of modification <70%)”. Also, the IC50 in the test with pERK in NCI-H358 cells (Homo sapiens, NCI-H358, 0.5 h) was in the range of 100 to 1000 nM.

In the case of `C=CC(=O)N1CC[C@@H](N(C)c2nc(OC[C@@H]3C[C@@H](F)CN3C)nc3c(F)c(-c4ccc(F)c5sc(N)c(C#N)c45)c(Cl)cc23)[C@@H]1C` [Compound 82], in test [1], the “GppNHp-KRAS G12C percent of modification” value is “A (percent of modification ≥70%)”. In the test with pERK in NCI-H358 cells (Homo sapiens, NCI-H358, 0.5 h), this compound registered an IC50 of less than 100 nM.

With `C=CC(=O)N1CC[C@@H](N(C)c2nc(OC[C@@H]3CCCN3C)nc3c(F)c(-c4ccc(F)c5sc(N)c(C#N)c45)c(Cl)cc23)[C@@H]1C` [Compound 83], the “GppNHp-KRAS G12C percent of modification” value in test [1] was “A (percent of modification ≥70%)”. Further, the IC50 in the test on pERK in NCI-H358 cells (Homo sapiens, NCI-H358, 0.5 h) is less than 100 nM.

`C=CC(=O)N1CC[C@@H](N(C)c2nc(OC[C@@H]3CCCN3CC)nc3c(F)c(-c4ccc(F)c5sc(N)c(C#N)c45)c(Cl)cc23)[C@@H]1C` [Compound 84]: the “GppNHp-KRAS G12C percent of modification” value in test [1] is reported as “A (percent of modification ≥70%)”. In the test on pERK in NCI-H358 cells (Homo sapiens, NCI-H358, 0.5 h), the IC50 is less than 100 nM.

With `C=CC(=O)N1CC[C@@H](N(CC)c2nc(OC[C@@]34CCCN3C[C@H](F)C4)nc3c(F)c(-c4ccc(F)c5sc(N)c(C#N)c45)c(C(F)(F)F)cc23)[C@@H]1C` [Compound 86], the “GppNHp-KRAS G12C percent of modification” value in test [1] is listed as “A (percent of modification ≥70%)”. The same compound showed an IC50 in the test with pERK in NCI-H358 cells (Homo sapiens, NCI-H358, 0.5 h) of less than 100 nM.

Consider `C=CC(=O)N1CC[C@@H](N(C)c2nc(OCC3(CN4CCOCC4)CC3)nc3c(F)c(-c4ccc(F)c5sc(N)c(C#N)c45)c(C(F)(F)F)cc23)[C@H]1C` [Compound 87], for which the “GppNHp-KRAS G12C percent of modification” value in test [1] is on record as “C (10%≤percent of modification <50%)”. For the same compound, the IC50 in the test on pERK in NCI-H358 cells (Homo sapiens, NCI-H358, 0.5 h) was less than 100 nM.

`C=CC(=O)N1CC[C@@H](N(C)c2nc(OC[C@@]34CCCN3C[C@H](F)C4)nc3c(F)c(-c4ccc(F)c5oc(N)c(C#N)c45)c(C(F)(F)F)cc23)[C@H]1C` [Compound 90]: the “GppNHp-KRAS G12C percent of modification” value in test [1] is reported as “B (50≤percent of modification <70%)”. Moreover, the IC50 with pERK in NCI-H358 cells (Homo sapiens, NCI-H358, 0.5 h) was less than 100 nM.

For the compound `C=CC(=O)N1CC[C@@H](N(C)c2nc(OC[C@@]34CCCN3C[C@H](F)C4)nc3c(F)c(-c4nc(N)cc(C)c4C(F)(F)F)c(C(F)(F)F)cc23)[C@@H]1C` [Compound 91], the “GppNHp-KRAS G12C percent of modification” value in test [1] is “A (percent of modification ≥70%)”. Moreover, the 50% inhibitory concentration (IC50) in the test on pERK in NCI-H358 cells (Homo sapiens, NCI-H358, 0.5 h) is less than 100 nM.

Take `C=CC(=O)N1CC[C@@H](N(C)c2nc(OC[C@@H]3CC4(CC4)CN3CC)nc3c(F)c(-c4ccc(F)c5sc(N)c(C#N)c45)c(Cl)cc23)[C@@H]1C` [Compound 92]: the “GppNHp-KRAS G12C percent of modification” value in test [1] was “A (percent of modification ≥70%)”. In the test with pERK in NCI-H358 cells (Homo sapiens, NCI-H358, 0.5 h), this compound returned an IC50 of less than 100 nM.

As for `C=CC(=O)N1CC[C@@H](N(C)c2nc(OC[C@@H]3CC4(CC4)CN3CC)nc3c(F)c(-c4ccc(F)c5sc(N)c(C#N)c45)c(C(F)(F)F)cc23)[C@@H]1C` [Compound 95], in test [1], the “GppNHp-KRAS G12C percent of modification” value is on record as “A (percent of modification ≥70%)”. Also, in the test on pERK in NCI-H358 cells (Homo sapiens, NCI-H358, 0.5 h), the IC50 was less than 100 nM.

For the compound `C=CC(=O)N1CC[C@@H](N(C)c2nc(OC[C@@H]3CC4(CC4)CN3CC)nc3c(F)c(-c4ccc(F)c5sc(N)c(C#N)c45)c(Cl)cc23)[C@H]1C` [Compound 97], in test [1], the “GppNHp-KRAS G12C percent of modification” value is given as “A (percent of modification ≥70%)”. In the test on pERK in NCI-H358 cells (Homo sapiens, NCI-H358, 0.5 h), this compound had a half-inhibitory concentration (IC50) of less than 100 nM.

As for `C=CC(=O)N1CC[C@@H](N(C)c2nc(OC[C@@H]3C[C@@H](F)CN3CC)nc3c(F)c(-c4ccc(F)c5sc(N)c(C#N)c45)c(Cl)cc23)[C@H]1C` [Compound 98], the “GppNHp-KRAS G12C percent of modification” value in test [1] is “D (percent of modification <10%)”. This compound also displayed an IC50 in the test on pERK in NCI-H358 cells (Homo sapiens, NCI-H358, 0.5 h) of 100 to 1000 nM.

For the compound `C=CC(=O)N1CC[C@@H](N(C)c2nc(OC[C@@H]3C[C@@H](OC)CN3CC)nc3c(F)c(-c4ccc(F)c5sc(N)c(C#N)c45)c(Cl)cc23)[C@H]1C` [Compound 99], the “GppNHp-KRAS G12C percent of modification” value in test [1] is given as “A (percent of modification ≥70%)”. In addition, the IC50 with pERK in NCI-H358 cells (Homo sapiens, NCI-H358, 0.5 h) was less than 100 nM.

As for `C=CC(=O)N1CC[C@@H](N(C)c2nc(OC[C@@H]3C[C@@H](OC)CN3CC)nc3c(F)c(-c4ccc(F)c5sc(N)c(C#N)c45)c(Cl)cc23)[C@@H]1C` [Compound 100], the “GppNHp-KRAS G12C percent of modification” value in test [1] was “A (percent of modification ≥70%)”. This compound also showed an IC50 in the test on pERK in NCI-H358 cells (Homo sapiens, NCI-H358, 0.5 h) of less than 100 nM.
